Data taken from US4055640A, “Compositions and methods for controlling the growth of bacteria, fungi and algae using certain derivatives of N-(2,2-dichlorovinyl)salicylamides” (Nippon Kayaku Co., Ltd., priority 1975, dated 1977).
≈ marks a conversion by molar mass, not a printed value. Where “and” joins values, the source holds several entries; their conditions need not be identical. Equal values may be shown once. Where a name gives a salt, the structure may show the parent alone.

Columns and labels:
[1] = test system: seedling blight of rice plant (pathogen Fusarium sp. and Rhizoctonia sp.); experiment: Exterminating test on seedling blight of rice plant (Experimental Example 1); format: in vivo; conditions: soil, 408 h, 0.25g/box a.i., 5% dust mixed with soil; read-out: Percentage of healthy seedlings
Procedure, shortened: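 Pathogen-contaminated nursery soil (Fusarium sp., Rhizoctonia sp.) mixed with 5% compound dust at 5 g per box; Nihonbare rice sown, grown 7 days at 17° C in lighting chamber, then moved to field. Assessed 10 days later as percentage of healthy seedlings; commercial 4% hydroxyisoxazol dust run as control.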

[2] = test system: Cladosporium cucumerinum (cucumber scab); experiment: Exterminating test on cucumber scab (Experimental Example 2); format: in vivo; design: scale not given here; conditions: 500 ppm, 5 days after inoculation
Procedure, shortened: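 Potted cucumber seedlings (cv. Sagamihanjiro, 3–4 leaf stage) were sprayed with an aqueous suspension of 80% wettable powder, then spray-inoculated with Cladosporium cucumerinum spores 24 h later. Plants were held 24 h in a moist chamber at 20° C, then in a greenhouse at 20° C. Infected Index was scored 5 days after inoculation from leaf counts by attack severity.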

[3] = test system: cucumber seedlings (variety: Sagamihanjiro); experiment: Phytotoxicity on cucumber seedlings (Experimental Example 2); format: in vivo; conditions: 500 ppm
Procedure, shortened: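 Cucumber seedlings at the 3–4 leaf stage sprayed with water-diluted 80% wettable powder, then spray-inoculated with Cladosporium cucumerinum spores 24 h later. Plants held 24 h in a moist chamber at 20° C, then kept in a greenhouse at 20° C.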

[4] = test system: Rhizoctonia solani (damping-off of cucumber); experiment: Exterminating test on damping-off of cucumber (Experimental Example 3); format: in vivo; conditions: Rhizoctonia solani, soil, 240 h, 1,000 ppm, soil drench 50 ml per pot, 10 days; read-out: Percentage of healthy seedlings
Procedure, shortened: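 Percentage of healthy seedlings was scored 10 days post inoculation, with PCNB 50% wettable powder run alongside as reference. Each pot held 10 Azumamidori cucumber seeds in field soil carrying 5 g Rhizoctonia solani. Soil drench: 50 ml water suspension of 80% wettable powder; greenhouse.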

[5] = test system: botrytis cinerea (gray mold); experiment: Exterminating test on gray mold of tomato (Experimental Example 5); format: in vivo; design: scale not given here; conditions: 1,000 ppm, 48 hours after inoculation, kidney bean leaves
Procedure, shortened: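 Kidney bean seedlings (5-6 leaf stage) sprayed with water-diluted 80% wettable powder; leaves detached 24 h later and inoculated with B. cinerea agar disks under moist conditions. Lesion diameters measured 48 h post-inoculation to calculate an Effect Index.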

[6] = test system: seedlings of kidney beans (variety: Orient); experiment: Phytotoxicity on kidney beans (Experimental Example 5); format: in vivo; conditions: 1,000 ppm
summer orange seedlings = experiment: Phytotoxicity on summer orange seedlings (Experimental Example 6); format: in vivo; conditions: 1,000 ppm
Cladosporium cucumerinum = experiment: Exterminating test for seed treatment (Experimental Example 7); format: in vivo
Text: Exterminating test for seed treatment. Cucumber seeds (variety: Oyashima) were dipped in the spores suspension of Cladosporium cucumerinum and dried. After 1 day, the seeds were dressed with 80% wettable powder of the present invention. On the other hand, other seeds were dipped in the solution of 80% wettable powder of the present invention. Five (5) seeds treated by either dressing or dipping were placed on each potato dextrose agar plate. After 10 days after the treatment, degrees attacked by the pathogen were observed and the results were shown with an "Effective Index". An "Effective Index" was calculated as follows: [formula]

[7] = test system: Cucumber seeds (variety: Oyashima); experiment: Phytotoxicity on cucumber seeds (Experimental Example 7); format: in vivo
Cladosporium harbarum = experiment: Minimum inhibitory concentration, dilution methods (Example 14); format: cell-based; conditions: for minimum inhibitory concentration: (1) potato-dextrose agar dilution method
Text: (§1) Bacteriocidal activity and fungicidal activity of the active compounds of the present invention were examined by potato-dextrose agar dilution method, [2] waxman's liquid medium dilution method or [3] glucose bouillon medium dilution method. The results are shown in Table 4 below as the minimum inhibitory concentration (the minimum concentration of active compound found to produce 100% control of the test bacteria and fungi).

Escherichia coli = experiment: as above; format: cell-based; conditions: Escherichia coli
Text: as §1

Penicillium Citrinum = experiment: as above; format: cell-based; conditions: for MIC: Penicillium citrinum
Text: as §1

[8] = (1) potato-dextrose agar dilution method
[9] = (2) waxman's liquid medium dilution method

| Structure (SMILES) | Percentage of healthy seedlings at 0.25 g/box [1] | Infected Index [2] | Phytotoxicity [3] | pest or weed control at 1000 ppm [4] | Effect Index [5] | Phytotoxicity [6] | Phytotoxicity (summer orange seedlings) | Effective Index (Cladosporium cucumerinum; dipped, 5,000 ppm (30 min.)) | Effective Index (Cladosporium cucumerinum; dressed, 1 %) | Phytotoxicity ([7]; dipped, 5,000 ppm (30 min.)) | Phytotoxicity ([7]; dressed, 1 %) | minimum inhibitory concentration (Cladosporium harbarum) | MIC (Cladosporium harbarum; Cladosporium, (2) waxman's liquid medium dilution method) | MIC (Escherichia coli; [8]) | MIC (Escherichia coli; [9]) | MIC (Penicillium Citrinum; [8]) | MIC (Penicillium Citrinum; [9]) | MIC (Escherichia coli; (3) glucose bouillon medium dilution method) | minimum inhibitory concentration (Penicillium Citrinum; [8]) |
| --- | --- | --- | --- | --- | --- | --- | --- | --- | --- | --- | --- | --- | --- | --- | --- | --- | --- | --- | --- |
| O=C(NC=C(Cl)Cl)c1ccccc1O [Compound No. 1, N-(β,β-dichlorovinyl) salicylamide] | 80.2% | 9.4 | Nil | 100% | 84 | Nil | Nil | 69 | 87 | Nil | Nil | 10 mc g/ml | 5 µg/mL (≈ 21.5 µM) | 80 µg/mL (≈ 345 µM) | 80 µg/mL (≈ 345 µM) | 10 µg/mL (≈ 43.1 µM) | 20 µg/mL (≈ 86.2 µM) | – | – |
| O=C(NC=C(Cl)Cl)c1ccccc1O [Compound No. 20, sodium salt of N-(β,β-dichlorovinyl) salicylamide] | – | 13.7 | Nil | – | 85 | Nil | – | – | 90 | – | Nil | 2.5 mc g/ml | – | – | – | – | – | 60 µg/mL | 10 mc g/ml |
| CC(=O)Oc1ccccc1C(=O)NC=C(Cl)Cl [Compound No. 6, O-acetyl-N-(2,2-dichlorovinyl) salicylamide] | 83.2% | 8.2 | Nil | 100% | 75 | Nil | Nil | 88 and 81 | 95 | Nil | Nil | – | – | – | – | – | – | – | – |
